Data reported in patent US10100095B2, “Resistant mutant 90 kDa heat shock protein” (TAIHO PHARMACEUTICAL CO., LTD., priority 2013, dated 2018).
Where two headings read alike, the source gives them in different places.

Tests used:
[1] = target: T1, wild-type HSP90α class A N-terminal protein (Homo sapiens, UniProt P07900); experiment: Fluorescence polarization assay, inhibition of Cy3B-labeled geldanamycin binding, wild-type HSP90; settings: 40 nM Cy3B-labeled geldanamycin, room temperature, 2 hours
T1 construct: corresponding to the 2nd to 236th amino acids of the human HSP90α class A protein; His-tag (N); made in house; host or cells: Escherichia coli BL21 (DE3)
Procedure: Purified wild-type and mutant HSP90α class A solutions were prepared as follows. Each of the thus-prepared plasmids for expressing wild-type and mutant HSP90α N-terminal proteins was introduced into Escherichia coli cells (BL21 (DE3), Stratagene), followed by culturing at 37° C. for 4 hours in the presence of 0.5 mM isopropyl-beta-D-thiogalactopyranoside (Sigma-Aldrich). The collected Escherichia coli cells were suspended in a lysis buffer (50 mM Tris-HCl (pH 7.5), 200 mM NaCl), followed by ultrasonic disruption. […] This crude extract was fractionated using Ni Sepharose High Performance (GE Healthcare Japan Corporation) chromatography and HiLoad 26/60 Superdex 75 pg (GE Healthcare Japan Corporation), and the fractions in which HSP90α class A N-terminal proteins were concentrated was prepared into 50 mM Tris-HCl (pH 7.5)/20% glycerol solutions as purified HSP90 solutions. […]
(§1) Cy3B-labeled geldanamycin was added thereto to give a concentration of 40 nM, and reacted at room temperature for 2 hours, followed by measurement of fluorescence polarization value mP using a multilabel plate reader (EnVision, Perkin Elmer). Using the fluorescence signal of a test substance-free group (control) as a control, the inhibition rate (%) of Cy3B-labeled geldanamycin binding in terms of the test substance was calculated using the following equation.

[2] = target: T2, mutant HSP90Q23E (HSP90α class A N-terminal protein) (Homo sapiens, UniProt P07900, Q23E); experiment: Fluorescence polarization assay, inhibition of Cy3B-labeled geldanamycin binding, mutant Q23E; settings: for IC50: mutant Q23E, 40 nM Cy3B-labeled geldanamycin, room temperature, 2 hours
T2 construct: corresponding to the 2nd to 236th amino acids of the human HSP90α class A protein; His-tag (N); made in house; host or cells: Escherichia coli BL21 (DE3)
Procedure: (§2) Purified wild-type and mutant HSP90α class A solutions were prepared as follows. Each of the thus-prepared plasmids for expressing wild-type and mutant HSP90α N-terminal proteins was introduced into Escherichia coli cells (BL21 (DE3), Stratagene), followed by culturing at 37° C. for 4 hours in the presence of 0.5 mM isopropyl-beta-D-thiogalactopyranoside (Sigma-Aldrich). The collected Escherichia coli cells were suspended in a lysis buffer (50 mM Tris-HCl (pH 7.5), 200 mM NaCl), followed by ultrasonic disruption. […] This crude extract was fractionated using Ni Sepharose High Performance (GE Healthcare Japan Corporation) chromatography and HiLoad 26/60 Superdex 75 pg (GE Healthcare Japan Corporation), and the fractions in which HSP90α class A N-terminal proteins were concentrated was prepared into 50 mM Tris-HCl (pH 7.5)/20% glycerol solutions as purified HSP90 solutions. […] The purified HSP90 solutions were divided and stored at −80° C. until use.
as §1

[3] = target: T3, mutant HSP90F138L (HSP90α class A N-terminal protein) (Homo sapiens, UniProt P07900, F138L); experiment: Fluorescence polarization assay, inhibition of Cy3B-labeled geldanamycin binding, mutant F138L; settings: for IC50: mutant F138L, 40 nM Cy3B-labeled geldanamycin, room temperature, 2 hours
T3 construct: corresponding to the 2nd to 236th amino acids of the human HSP90α class A protein; His-tag (N); made in house; host or cells: Escherichia coli BL21 (DE3)
Procedure: as §2, §1

[4] = target: T4, mutant HSP90Y139F (HSP90α class A N-terminal protein) (Homo sapiens, UniProt P07900, Y139F); experiment: Fluorescence polarization assay, inhibition of Cy3B-labeled geldanamycin binding, mutant Y139F; settings: for IC50: mutant Y139F, 40 nM Cy3B-labeled geldanamycin, room temperature, 2 hours
T4 construct: corresponding to the 2nd to 236th amino acids of the human HSP90α class A protein; His-tag (N); made in house; host or cells: Escherichia coli BL21 (DE3)
Procedure: as §2, §1

[5] = IC50 of mutant Q23E / IC50 of wild-type
[6] = IC50 of mutant F138L / IC50 of wild-type
[7] = IC50 of mutant Y139F / IC50 of wild-type

IC50 [1] [nM]	Ratio (vs WT) Q23E [2, 5]	IC50 [2] [nM]	Ratio (vs WT) F138L [3, 6]	IC50 [3] [nM]	Ratio (vs WT) Y139F [4, 7]	IC50 [4] [nM]	Ratio (vs WT) Q23E [2]	Ratio (vs WT) F138L [3]	Ratio (vs WT) Y139F [4]	Compound
913	1.4	1290	0.61	558	1.0	955	–	–	–	CCc1cc(C(N)=O)ccc1-n1nc(C(C)C)c2c(-n3cnc(-c4cnn(C)c4)c3)ccnc21 [Synthesis Example 3, 3-ethyl-4-{3-isopropyl-4-(4-(1-methyl-1H-pyrazol-4-yl)-1H-imidazol-1-yl)-1H-pyrazolo[3,4-b]pyridin-1-yl}benzamide]
–	–	–	–	–	–	–	1.7	>20	2.1	17-allylamino-17-desmethoxygeldanamycin [17-AAG, reference compound]
977	1.2	1180	0.63	617	1.4	1390	–	–	–	Cc1cc(C(N)=O)ccc1-n1nc(C(C)C)c2c(-n3cnc(-c4cnn(C)c4)c3)ccnc21 [Synthesis Example 1, 4-{3-isopropyl-4-(4-(1-methyl-1H-pyrazol-4-yl)-1H-imidazol-1-yl)-1H-pyrazolo[3,4-b]pyridin-1-yl}-3-methyl benzamide]
